Test results as given in ChEMBL document CHEMBL1201862, “PubChem BioAssay data set” (2004).
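All cell lines were grown in 96-well plates and treated with compound for 48 hours. GI50 is the concentration that inhibits growth by half.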 Activity calls are given as the source filed them. Cut-off read from the data, not from the text of the source: active = GI50 up to about 1.1 µM and inactive = higher.

Key:
Experiment in all cases: NCI tumour cell line growth inhibition, 48 h
[1] = test system: M19-MEL
[2] = test system: LXFL 529
[3] = test system: SNB-78
[4] = test system: KM-20L2
[5] = test system: RXF 631
[6] = test system: DMS-273
[7] = test system: XF498

Measured: GI50

CC(=O)OCc1nnn2c1C(OC(C)=O)CC2 (centres undefined)
inactive: [1] > 100 µM | [2] > 100 µM | [3] > 100 µM | [4] > 100 µM | [5] > 100 µM | [6] > 100 µM | [7] > 100 µM

c1ccc(N2CCN(CCCN3CCc4c([nH]c5ccccc45)C3c3cccnc3)CC2)cc1 (centres undefined)
inactive: [1] > 92 µM | [2] > 74.5 µM | [3] > 100 µM | [4] 39.4 µM | [5] > 55.7 µM | [6] > 47 µM | [7] 5.04 µM

CN(C)c1ccc(C=C2C(=O)OC(C)(C)OC2=O)cc1Br
inactive: [1] > 100 µM | [2] > 100 µM | [3] > 10 µM | [4] > 100 µM | [5] > 100 µM | [6] > 100 µM | [7] > 100 µM

COC(=O)CCC(=O)CC(=O)C1=NS(=O)(=O)c2nc(S(N)(=O)=O)c(Cl)cc2N1
inactive: [1] > 100 µM | [2] > 100 µM | [4] 72.9 µM | [5] > 100 µM | [6] 72.3 µM | [7] > 100 µM

N#Cc1ccc([N+](=O)[O-])cc1NC(N)=S
inactive: [1] > 100 µM | [2] 16.3 µM | [3] > 100 µM | [4] > 100 µM | [5] > 100 µM | [6] > 100 µM | [7] > 100 µM

CC(C)COC(=O)N1N=NC2C3CC(=O)C(O3)C21 (centres undefined)
inactive: [1] > 100 µM | [2] > 100 µM | [3] > 100 µM | [4] > 100 µM | [5] > 100 µM | [6] > 100 µM

CC1(c2ccc(F)cc2)C(C#N)C(=O)NC(=O)C1C#N (centres undefined)
inactive: [1] > 100 µM | [2] > 100 µM | [4] > 100 µM | [5] > 100 µM | [6] > 100 µM | [7] > 100 µM

C#CCOCn1cnc2ncnc(Cl)c21
inactive: [1] > 100 µM | [2] > 100 µM | [3] > 100 µM | [4] > 100 µM | [5] > 100 µM | [6] > 100 µM | [7] > 100 µM

S=P1(Oc2ccccc2)NNP2(=NP(N3CC3)(N3CC3)=NP(N3CC3)(N3CC3)=N2)NN1 (centres undefined)
inactive: [1] > 100 µM | [2] > 100 µM | [5] > 100 µM | [6] 76.4 µM | [7] > 100 µM

O=C1Cc2ccccc2N1c1c(Cl)cccc1Cl
inactive: [1] 40.6 µM | [2] 87.7 µM | [3] 74.5 µM | [4] 30.2 µM | [5] > 100 µM | [7] 21.6 µM
